Test results taken from PubChem BioAssay (NCI).
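All cell lines were grown in 96-well plates and treated with compound for 48 hours. GI50 is the concentration that inhibits growth by half. TGI marks complete inhibition of growth.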

Columns and labels:
Experiment in all cases: inhibition of tumour cell growth, NCI panel, 48 h
COLO 205 colon = test system: COLO 205 colon
OVCAR-4 ovarian = test system: OVCAR-4 ovarian
SNB-75 CNS = test system: SNB-75 CNS
ACHN renal = test system: ACHN renal
MDA-MB-435 = test system: MDA-MB-435
BT-549 breast = test system: BT-549 breast
RXF 393 renal = test system: RXF 393 renal
OVCAR-3 ovarian = test system: OVCAR-3 ovarian
SF-295 CNS = test system: SF-295 CNS
NCI-H522 lung = test system: NCI-H522 lung
HOP-62 NSCLC = test system: HOP-62 NSCLC
UO-31 renal = test system: UO-31 renal
M14 melanoma = test system: M14 melanoma
NCI/ADR-RES ovarian = test system: NCI/ADR-RES ovarian
CCRF-CEM leukemia = test system: CCRF-CEM leukemia
PC-3 prostate = test system: PC-3 prostate
U251 CNS = test system: U251 CNS
K-562 leukemia = test system: K-562 leukemia
SN12C renal = test system: SN12C renal
MALME-3M melanoma = test system: MALME-3M melanoma
DU-145 prostate = test system: DU-145 prostate
MCF7 breast = test system: MCF7 breast
SF-268 CNS = test system: SF-268 CNS
T-47D breast = test system: T-47D breast
SW-620 colon = test system: SW-620 colon
HL-60(TB) leukemia = test system: HL-60(TB) leukemia
HT29 colon = test system: HT29 colon
NCI-H460 lung = test system: NCI-H460 lung
TK-10 renal = test system: TK-10 renal
A549 NSCLC = test system: A549 NSCLC
UACC-62 melanoma = test system: UACC-62 melanoma
SK-OV-3 ovarian = test system: SK-OV-3 ovarian
OVCAR-5 ovarian = test system: OVCAR-5 ovarian
KM12 colon = test system: KM12 colon
786-0 renal = test system: 786-0 renal
SK-MEL-28 melanoma = test system: SK-MEL-28 melanoma
MOLT-4 leukemia = test system: MOLT-4 leukemia
HCT-116 colon = test system: HCT-116 colon
RPMI-8226 leukemia = test system: RPMI-8226 leukemia
EKVX NSCLC = test system: EKVX NSCLC
OVCAR-8 ovarian = test system: OVCAR-8 ovarian
HCT-15 colon = test system: HCT-15 colon
CAKI-1 renal = test system: CAKI-1 renal
HOP-92 NSCLC = test system: HOP-92 NSCLC
HCC-2998 colon = test system: HCC-2998 colon
UACC-257 melanoma = test system: UACC-257 melanoma
MDA-MB-231 breast = test system: MDA-MB-231 breast
SK-MEL-5 melanoma = test system: SK-MEL-5 melanoma
LOX IMVI melanoma = test system: LOX IMVI melanoma
HS 578T breast = test system: HS 578T breast
SK-MEL-2 melanoma = test system: SK-MEL-2 melanoma
IGROV1 ovarian = test system: IGROV1 ovarian
SNB-19 CNS = test system: SNB-19 CNS
NCI-H226 lung = test system: NCI-H226 lung
SR leukemia = test system: SR leukemia
A498 renal = test system: A498 renal
SF-539 CNS = test system: SF-539 CNS

## COc1cc2cc(Oc3ccc(NC(=O)c4cccc(C(F)(F)F)c4)cc3)c(C)nc2cc1OCCN1CCCCC1
COLO 205 colon
  GI50: 16.4 µM
  TGI: 31 µM
OVCAR-4 ovarian
  GI50: 19.4 µM
  TGI: 45.7 µM
SNB-75 CNS
  GI50: 15 µM
  TGI: 29.9 µM
ACHN renal
  GI50: 21.5 µM
  TGI: 49.2 µM
MDA-MB-435
  GI50: 16.7 µM
  TGI: 31.4 µM
BT-549 breast
  GI50: > 100 µM
  TGI: > 100 µM
RXF 393 renal
  GI50: 13.2 µM
  TGI: 26.6 µM
OVCAR-3 ovarian
  GI50: 22.3 µM
  TGI: 47.6 µM
SF-295 CNS
  GI50: 18.3 µM
  TGI: 34 µM
NCI-H522 lung
  GI50: 16 µM
  TGI: 31.3 µM
HOP-62 NSCLC
  GI50: 33.6 µM
  TGI: > 100 µM
UO-31 renal
  GI50: 15.4 µM
  TGI: 30 µM
M14 melanoma
  GI50: 17.9 µM
  TGI: 35.1 µM
NCI/ADR-RES ovarian
  GI50: 33.9 µM
  TGI: > 100 µM
CCRF-CEM leukemia
  GI50: 29.8 µM
  TGI: > 100 µM
PC-3 prostate
  GI50: 19 µM
  TGI: 42 µM
U251 CNS
  GI50: 17.8 µM
  TGI: 34 µM
K-562 leukemia
  GI50: 19.3 µM
  TGI: 47 µM
SN12C renal
  GI50: 17.6 µM
  TGI: 34.4 µM
MALME-3M melanoma
  GI50: 18.3 µM
  TGI: 34 µM
DU-145 prostate
  GI50: 41.6 µM
  TGI: > 100 µM
MCF7 breast
  GI50: 14.4 µM
  TGI: 29.7 µM
SF-268 CNS
  GI50: 20.4 µM
  TGI: 43.4 µM
T-47D breast
  GI50: 18.1 µM
  TGI: 46.1 µM
SW-620 colon
  GI50: 21.3 µM
  TGI: 42.8 µM
HL-60(TB) leukemia
  GI50: 19.6 µM
  TGI: 42.4 µM
HT29 colon
  GI50: 18 µM
  TGI: 37.1 µM
NCI-H460 lung
  GI50: 19 µM
  TGI: 37.3 µM
TK-10 renal
  GI50: > 100 µM
  TGI: > 100 µM
A549 NSCLC
  GI50: 27.5 µM
  TGI: > 100 µM
UACC-62 melanoma
  GI50: 18.8 µM
  TGI: 36.1 µM
SK-OV-3 ovarian
  GI50: > 100 µM
  TGI: > 100 µM
OVCAR-5 ovarian
  GI50: 41.4 µM
  TGI: > 100 µM
KM12 colon
  GI50: 30.3 µM
  TGI: > 100 µM
786-0 renal
  GI50: 16.5 µM
  TGI: 32.8 µM
SK-MEL-28 melanoma
  GI50: 17.1 µM
  TGI: 31.4 µM
MOLT-4 leukemia
  GI50: 20.9 µM
  TGI: 58.5 µM
HCT-116 colon
  GI50: 20.6 µM
  TGI: 48.9 µM
RPMI-8226 leukemia
  GI50: 20.6 µM
  TGI: 52.4 µM
EKVX NSCLC
  GI50: 31.6 µM
  TGI: > 100 µM
OVCAR-8 ovarian
  GI50: 18.2 µM
  TGI: 36.7 µM
HCT-15 colon
  GI50: 16 µM
  TGI: 30.9 µM
CAKI-1 renal
  GI50: 16 µM
  TGI: 32.2 µM
HOP-92 NSCLC
  GI50: 21.7 µM
  TGI: > 100 µM
HCC-2998 colon
  GI50: 18.2 µM
  TGI: 34.6 µM
UACC-257 melanoma
  GI50: 17.2 µM
  TGI: 32.2 µM
MDA-MB-231 breast
  GI50: 18.4 µM
  TGI: 36.9 µM
SK-MEL-5 melanoma
  GI50: 17.1 µM
  TGI: 30.9 µM
LOX IMVI melanoma
  GI50: 17.8 µM
  TGI: 32.5 µM
HS 578T breast
  GI50: 19.4 µM
  TGI: 53 µM
SK-MEL-2 melanoma
  GI50: > 100 µM
  TGI: > 100 µM
IGROV1 ovarian
  GI50: 38.4 µM
  TGI: > 100 µM
SNB-19 CNS
  GI50: 34.8 µM
  TGI: > 100 µM
NCI-H226 lung
  GI50: > 100 µM
  TGI: > 100 µM
SR leukemia
  GI50: 18.2 µM
  TGI: 46.1 µM
A498 renal
  GI50: > 100 µM
  TGI: > 100 µM
SF-539 CNS
  GI50: 16.9 µM
  TGI: 30.9 µM
